From ChEMBL document CHEMBL1136544, “3-(2-carboxyethyl)-4,6-dichloro-1H-indole-2-carboxylic acid: an allosteric inhibitor of fructose-1,6-bisphosphatase at the AMP site” (Bioorg Med Chem Lett, 2003)

Target: not listed separately
Test: Inhibitory activity against Fructose-1,6-bisphosphatase (F16BPase) in rabbit liver
Type: tissue-based, Oryctolagus cuniculus
An IC50 of 210 nM was found for `O=C(O)CCc1c(C(=O)O)[nH]c2cc(Cl)cc(Cl)c12` in this work.

Target: T1, Fructose-1,6-bisphosphatase 1 (Sus scrofa, UniProt P00636)
T1 sequence (P00636 whole entry): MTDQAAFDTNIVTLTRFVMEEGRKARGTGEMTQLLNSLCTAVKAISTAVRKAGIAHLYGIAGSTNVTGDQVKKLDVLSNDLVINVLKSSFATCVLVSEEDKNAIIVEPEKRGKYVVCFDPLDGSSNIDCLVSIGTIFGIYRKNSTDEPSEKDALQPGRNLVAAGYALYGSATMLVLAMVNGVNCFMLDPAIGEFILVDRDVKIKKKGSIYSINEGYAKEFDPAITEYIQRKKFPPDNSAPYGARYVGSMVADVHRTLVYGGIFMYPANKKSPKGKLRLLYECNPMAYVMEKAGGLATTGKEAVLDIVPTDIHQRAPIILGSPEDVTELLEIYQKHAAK
Test: Inhibitory activity against Fructose-1,6-bisphosphatase (F16BPase) in porcine kidney
Type: tissue-based
An IC50 of 1000 nM was found for `O=C(O)CCc1c(C(=O)O)[nH]c2cc(Cl)cc(Cl)c12` in this work.

Target: not listed separately
Test: Inhibitory activity against Fructose-1,6-bisphosphatase (F16BPase) in human liver
Type: tissue-based
An IC50 of 1000 nM was found for `O=C(O)CCCc1c(C(=O)O)[nH]c2cc(Cl)cc(Cl)c12` in this work.
In the case of `O=C(O)CCc1c(C(=O)NO)[nH]c2cc(Cl)cc(Cl)c12`, the IC50 is reported as > 10000 nM.
An IC50 of 2500 nM was found for `O=C(O)Cc1c(C(=O)O)[nH]c2cc(Cl)cc(Cl)c12` in this work.
An IC50 of 7000 nM was found for `COC(=O)CCc1c(C(=O)O)[nH]c2cc(Cl)cc(Cl)c12` in this work.
An IC50 of 1700 nM was found for `CN(C)C(=O)CCc1c(C(=O)O)[nH]c2cc(Cl)cc(Cl)c12` in this work.
In the case of `Cn1c(C(=O)O)c(CCC(=O)O)c2c(Cl)cc(Cl)cc21`, the IC50 is reported as > 10000 nM.
With `CN(C)C(=O)c1[nH]c2cc(Cl)cc(Cl)c2c1CCC(=O)O` the IC50 was > 10000 nM.
An IC50 of 2200 nM was found for `NC(=O)CCc1c(C(=O)O)[nH]c2cc(Cl)cc(Cl)c12` in this work.
An IC50 of 2700 nM was found for `O=C(O)c1[nH]c2cc(Cl)cc(Cl)c2c1CCCO` in this work.
An IC50 of 1500 nM was found for `O=C(CCc1c(C(=O)O)[nH]c2cc(Cl)cc(Cl)c12)NO` in this work.
With `CCOC(=O)c1[nH]c2cc(Cl)cc(Cl)c2c1CCC(=O)O` the IC50 was > 10000 nM.
With `O=C(O)CCc1c(CO)[nH]c2cc(Cl)cc(Cl)c12` the IC50 was > 10000 nM.
An IC50 of 1200 nM was found for `O=C(O)CCCCc1c(C(=O)O)[nH]c2cc(Cl)cc(Cl)c12` in this work.
With `NC(=O)c1[nH]c2cc(Cl)cc(Cl)c2c1CCC(=O)O` the IC50 was > 10000 nM.

Target: not listed separately
Test: Inhibitory activity against Fructose-1,6-bisphosphatase (F16BPase) in rat liver
Type: tissue-based
An IC50 of 11000 nM was found for `O=C(O)CCc1c(C(=O)O)[nH]c2cc(Cl)cc(Cl)c12` in this work.
